Data reported in patent US8435553B2, “Elastin stabilization of connective tissue” (Clemson University Research Foundation (CURF), priority 2005, dated 2013).
Values joined by “and” are separate entries in the source; they are usually repeats but may differ in a detail not shown here. Identical values can stand only once. Like-named read-outs stand apart in the source and are kept apart here.

What was measured:
rat abdominal aorta = assay: CaCl2 chemical injury aneurysm model on rat abdominal aorta; assay type: in vivo, Sprague-Dawley rats
From the text: In vivo use of the disclosed agents was examined. The aneurysm model used was based on the perivascular application of a high concentration calcium chloride (CaCl2) solution, a method originally used to induce aneurysms in rabbit carotid arteries (see, Gertz SD, Kurgan A, Eisenberg D. J Clin Invest 1988;81(3):649-656.) and has more recently been used on abdominal aorta of rodents. (See, e.g., Freestone T., et al., Arterioscler Thromb Vasc Biol 1995;15(8):1145-1151. Freestone T., et al., Arterioscler Thromb Vasc Biol 1997;17(1):10-17. Tambiah J., et al. Br J Surg 2001;88(7):935-940.) This model results in a localized mild insult to the arterial tissue. In most studies, a significant increase in aortic diameter (indicative of aneurysm formation) was observed after 3 to 6 weeks post-injury. For this example, the CaCl2-based chemical injury was performed on rat aorta.
(§1) Adult male Sprague-Dawley rats were placed under general anesthesia (2% to 3% isoflurane), allowing for a midline incision along the abdomen in order to expose the infrarenal abdominal aorta. Once exposed, the abdominal aorta was treated with 0.03% PGG solution in saline for 15 minutes using a strip (1.5 cm×0.5 cm) of presoaked 8-ply sterile cotton gauze. The area was then briefly rinsed with saline, allowing induction of chemical injury (0.5 M CaCl2, delivered with gauze for 15 minutes). As controls, rat aortas were treated with physiological saline for 15 minutes, rinsed, and then subjected to calcium chloride. After treating with CaCl2, the gauze was removed and the abdominal cavity was closed with subcutaneous suture, followed by surgical staples. The rats were anesthetized after 28 days, at which point the abdominal aorta was again exposed. Digital photographs (before PGG application at day 0, as well as after 28 days) were used to measure percent increases in diameter after the 28 day period for each rat. Aortic tissue was collected for analysis.
Following superficial examination of the aortic segments, the segments were analyzed via desmosine analysis for elastin content. […]

Rat skin fibroblasts [1] = test system: Rat skin fibroblasts
Description: (§2) Fresh porcine aorta was treated with Glut, Glut/TA, or Glut/PGG, as described above. After thorough rinsing (3x, 1 hr. each, 100 mL ddH2O), samples were orbitally shaken at 120 rpm 37° C. for 14 days in a PBS/azide buffer, pH7.4, for extraction of soluble, cytotoxic compounds (50 mL per 6 tissues samples, each 4 mm×4 mm).
(§3) Rat skin fibroblasts were seeded onto 24-well plates (50,000 cells/well) in 1 mL DMEM supplemented with 10% FBS and 1% penicillin-streptomycin. Cells were maintained in a humidified incubator at 37° C. with 10% CO2. After 24 hours, the media was removed and replaced with one of the PBS/azide solutions diluted 10-fold in fresh media. As control, a sample was held in buffer alone (negative control) and also in a 70% ethanol solution (positive control). Effectively, 100 μL of the ‘test solution’ was added to 900 μL of media for each well (except in the case of ethanol, in which no media was added). The cells were incubated with these solutions for 2 hours and then rinsed with 1 mL PBS. Viability of the cells was then assessed using a qualitative LIVE/DEAD® staining fluorescent stain. In addition, a quantitative measurement, MTS, was used to measure the activity of cell enzymes. Specifically, the reagent was diluted 5-fold in media, then applied to the cells for 90 minutes. A portion of the resulting solutions ([…]) was transferred to a 96-well plate and read at an absorbance of 490 nm. Samples were blanked to a well containing media and MTS reagent with no cells.

[2] = Long-term binding of tannins to aortic tissue (extraction from explanted aorta); assay type: in vivo, Sprague-Dawley rats
Description: as §1, with “analysis. Vessels were also analyzed to determine the long-term binding of the tannins with the tissue. Tannins were extracted from explanted aorta immediately after treatment (labeled PGG in situ on FIG. 11) and measured levels were compared to those obtained from aorta explanted 28 days following PGG treatment (labeled PGG in vivo on FIG. 11).” for “analysis.”

elastase = assay: Elastase digestion of treated porcine aorta (mass loss, elastin histology); assay type: biochemical
Description: Fresh porcine aorta was cut into approximately 4 mm×4 mm squares and treated with 0.3% tannic acid (TA) (1.76 mM) in 50 mM HEPES […] buffered saline at pH 5.5 for 4 days at room temperature. A control sample was treated in mM Hepes buffered saline at pH5.5. Samples were then rinsed three times (1 hour each) in 100 mL ddH2O at room temperature and lyophilized to record dry weight. Samples (about 15-25 mg dry weight), both control and TA treated, were incubated with 1.0 mL pure elastase (20 units/ml, in 100 mM Tris, 1 mM CaCl2, 0.02% NaN3, pH 7.8 buffer) at 37° C. for 48 hours with orbital shaking at 650 rpm. Samples were then centrifuged (10000 rpm, 10 min. 4° C.) and supernatants retained to assess enzyme activity. Tissue samples were again rinsed three times (1 hour each) in 100 mL ddH2O at room temperature and lyophilized to record dry weight after elastase, and the percent of digested tissue was calculated. Elastin degradation was assessed by measuring mass loss (dry weight before and after elastase contact) and by preparation of histological slides stained with an elastin-specific stain (Voerhoff van Gieson stain).

pure aortic elastin = assay: Kinetics of binding of tannic acid to pure aortic elastin; design: species or system porcine
Description: Ascending porcine aorta was collected fresh at a slaughterhouse and transported to the laboratory on ice. After cleaning fat and adherent tissues, aorta was cut into 2×4 mm strips and thoroughly rinsed in cold saline. Aortic elastin was purified by a sequence of extractions. Specifically, aortic strips were suspended in 100 mM sodium hydroxide (60 strips in 100 mL) and incubated for 14 hours at 37° C. with collagenase (0.5 units/mg wet tissue) in 50 mM Tris buffer, 10 mM calcium chloride, pH 8.0. The collagenase preparation was pre-adsorbed with elastin fibers to remove residual elastolytic activities. The final digestion step completely removed residual collagen, leaving pure aortic elastin.
The pure aortic elastin strips were placed in 2 mL microfuge tubes and suspended in 1.5 mL of an 8 mg % TA solution prepared in a 50 mM disodium hydrogen phosphate, 0.9% sodium chloride buffer, pH 5.5. A second group consisted of pure aortic elastin suspended in a solution containing 8 mg % TA and 16 mg % Glut in the same buffer. As controls, TA solution and the mixture of TA and Glut were incubated without elastin samples. Samples were incubated at room temperature and at defined time intervals (0, 20, 40, 60, 120, 360 minutes and 24 hours), samples were retrieved and analyzed for TA content in solution. Specifically, samples were mixed with a tungstate/phosphomolybdate reagent followed by addition of a saturated sodium carbonate solution and ddH2O. After 10 minutes at room temperature, OD at 760 nm was measured in a microplate spectrophotometer. Standard curves were constructed with TA in the range of 0-8 mg % and with TA (0-8 mg %) in mixtures with Glut (16 mg % ). Glut interference with the TA color reaction was minimal (no statistical differences found for all data points). Finally, the elastin strops were rinsed in ddH2O and lyophilized. The amount of TA bound to pure aortic elastin was calculated from the differences between initial TA concentration in solution and concentration of TA in solution after incubation with elastin strops and were expresses as micrograms of TA bound by 1 mg dry elastin. All samples were assayed in triplicate.

porcine aorta [3] = assay: Tensile stress/strain test, elastic modulus of aorta; conditions: slope of stress-strain curve between 0 and 5% strain; n = 4
Description: To evaluate mechanical properties, aorta was cut to form dumbbell shapes approximately 40 mm in length, approximately 10 mm wide at each end, and approximately 5 mm wide at the center, with the long axis of the dumbbell shape being parallel to the circumferential direction of the aorta. Tensile properties of the samples were tested using standard stress/strain analysis on a Synergie 100 testing apparatus (MTS Systems Corporation, Eden Prairie, Minn.) operated at a constant uniaxial velocity of 0.2 mm/sec using a 10-Newton load cell to determine elastic modulus of the samples. Elastic modulus was calculated as the slope of the stress-strain curve between 0 and 5% strain.

Rat skin fibroblasts [4] = test system: Rat skin fibroblasts; remark: listed apart in the source
Description: as §2, §3
Micrographs of cells introduced to LIVE/DEAD® were taken 45 minutes after exposure. Results are shown in FIGS. 6A-6E, in which living cells appear as light spots on the dark background, and dead cells appear as darker gray spots.

porcine aorta [5] = assay: Recoil of aortic rings by opening angle measurement; conditions: aortic rings cut radially, relaxed 15 minutes; n = 5
Description: Fresh porcine aorta was cut across the diameter into continuous rings approximately 1 cm in height as illustrated in FIG. 5A and treated with glutaraldehyde (Glut treatment). For this treatment, aortic ring samples were first fixed with 0.6% glutaraldehyde in 50 mM Hepes buffered saline, pH 7.4, overnight at room temperatures, followed by 0.2% glutaraldehyde in the same buffer for 7 days at room temperatures.
A portion of the Glut-treated rings were then treated with 0.3% pentagalloylglucose (PGG). PGG was first prepared from TA as outlined by Hagerman, et al. (Hagerman , Zhao Y., and Johanson J., “Methods for determination of condensed and hydrolyzable tannins,” Shahadi, F., Ed., Antinutrients and Phytochemicals in Foods, Wash., D.C., American Chemical Society, p. 209-222 (1997)). Specifically, TA was methanolyzed using a solution of methanol and acetate buffer. After methanolysis, the methanol was removed by rotary evaporation and replaced with ddH2O. A series of separate extractions involving diethyl ether and ethyl acetate, along with rinses of dilute methanol and ddH2O was performed to purify the PGG. The resulting precipitate was centrifuged and lyophilized to form a solid. […]
Samples were then tested for ability to recoil using opening angle measurements. […] Using these lines, the opening angles of the aortic rings were calculated. […]

## O=C(OC[C@H]1O[C@@H](OC(=O)c2cc(O)c(O)c(O)c2)[C@H](OC(=O)c2cc(O)c(O)c(O)c2)[C@@H](OC(=O)c2cc(O)c(O)c(O)c2)[C@@H]1OC(=O)c1cc(O)c(O)c(O)c1)c1cc(O)c(O)c(O)c1 [PGG, pentagalloylglucose]
Rat abdominal aorta; 0.03% PGG perivascular 15 minutes before CaCl2, 28 days
  percentage change in diameter of aortic segments: less than 10%
Rat abdominal aorta; 0.03% PGG perivascular 15 minutes before CaCl2, 28 days, n=12 per group
  increase in diameter of aortic segments: about 100 μm
Rat abdominal aorta; aortic segments 28 days post-injury
  desmosine content (elastin content): about 1350 pmol desmosine/mg protein
Rat skin fibroblasts [1]
  cytotoxicity comparison: less cytotoxic than TA
[2]; explanted 28 days following PGG treatment (PGG in vivo)
  level of tannins extracted from tissue: about 1.3 μg PGG/mg dry tissue
[2]; explanted immediately after treatment (PGG in situ)
  level of tannins extracted from tissue: about 1.8 μg PGG/mg dry tissue

## O=C(OC[C@H]1O[C@@H](OC(=O)c2cc(O)c(O)c(OC(=O)c3cc(O)c(O)c(O)c3)c2)[C@H](OC(=O)c2cc(O)c(O)c(OC(=O)c3cc(O)c(O)c(O)c3)c2)[C@@H](OC(=O)c2cc(O)c(O)c(OC(=O)c3cc(O)c(O)c(O)c3)c2)[C@@H]1OC(=O)c1cc(O)c(O)c(OC(=O)c2cc(O)c(O)c(O)c2)c1)c1cc(O)c(O)c(OC(=O)c2cc(O)c(O)c(O)c2)c1 [TA, tannic acid]
elastase; 0.3% TA pre-treated aorta after elastase
  elastin fibers in histology (Voerhoff van Gieson stain) after elastase: fully preserved
elastase; 0.3% TA pre-treatment 4 days pH 5.5, elastase 20 units/ml, 37° C., 48 hours, n=6
  mass lost after elastase (percent of digested tissue): 4-5% and 4.33%
Pure aortic elastin; after 6 hours incubation with elastin
  TA remaining in solution, of initial TA: 10%
Pure aortic elastin; at 24 hours incubation with elastin
  TA remaining in solution, of initial TA: less than 3.5%
Pure aortic elastin; rapid binding within the first 6 hours, then plateau
  TA bound at leveling off: about 3 mg of TA/mg dry elastin
Pure aortic elastin; within 1 hour of incubation with elastin, 8 mg % TA, pH 5.5
  decrease of amount of TA in solution: about 50%

## O=CCCCC=O [Glut, glutaraldehyde]
Porcine aorta [3]
  Mean Elastic Modulus: 1.28 kPa
Rat skin fibroblasts [4]
  cell viability after exposure to extracts: remained viable
Rat skin fibroblasts [4]; rat, 2 h
  Viability (live/dead assay): 100%
Porcine aorta [5]
  Mean opening angle: 35.9 degrees
Rat skin fibroblasts [1]; rat, 2 h
  Viability (MTS assay): 1.04

## CCO [EtOH, ethanol]
Rat skin fibroblasts [4]
  cell viability after exposure to extracts: essentially no viable cells
Rat skin fibroblasts [4]; 14 day tissue extract diluted 10-fold in media, 2 hours exposure
  Viability (live/dead assay): 0%
Rat skin fibroblasts [1]; 14 day tissue extract diluted 10-fold, 2 hours exposure, absorbance at 490 nm, n = 3
  Viability (MTS assay): 0.03
